Earlier results as cited in patent US20090048261A1, “Pharmaceutical Composition for Treatment of Ocular Hypertension” (priority 2007, published 2009).
Values joined by “and” are separate entries in the source; they are usually repeats but may differ in a detail not shown here. Equal values may be shown once. Read-outs that look alike come from different tables or passages of the source.

How the values were obtained:
[1] = tested on: primary open-angle glaucoma patients; conditions: 30 patients
[2] = tested on: alpha-2-andrenergic receptors; conditions: compared with clonidine
[3] = tested on: patients with glaucoma or ocular hypertension; conditions: for difference in effectiveness of brimonidine and dorzolamide: jointly used with topical beta-blockers, Cantor
[4] = tested on: carbonic anhydrase isoenzyme; conditions: after 4 weeks of bilateral treatment
[5] = topical

CC(C)OC(=O)CCC/C=C\C[C@@H]1[C@@H](CC[C@@H](O)CCc2ccccc2)[C@H](O)C[C@@H]1O [latanoprost]
increase in pulsating ocular blood flow [1]: 2.15 µL/s
reduction of intraocular pressure [1]: 3.75 mmHg

Brimonidine tartrate
time of peak ocular antihypertensive effects (topical administration of ophthalmic solution): 2 to 3 h

Brc1c(NC2=NCCN2)ccc2nccnc12 [brimonidine]
selectivity to alpha-2 adrenergic receptors [2]: higher selectivity
effectiveness in reducing ocular hypertension, brimonidine at 0.2% versus dorzolamide at 2% ([3]; joint therapy with topical beta-blockers, adults with ocular hypertension, Simmons): more effective
additive effect of intraocular pressure reduction ([3]; joint treatment to topical beta-blocker therapy): 5 mmhg and 3.7 mmhg
difference in effectiveness of brimonidine and dorzolamide [3]: no statistically significant differences

CCN[C@H]1C[C@H](C)S(=O)(=O)c2sc(S(N)(=O)=O)cc21 [dorzolamide]
binding to plasma proteins (plasma proteins): ~33%
additional reduction of intraocular pressure when added to topical brimonidine ([3]; dorzolamide at 2%, patients with intraocular pressure of at least 22 mm Hg, 30 days, Ermis): up to 29%
reduction of intraocular pressure when added to timolol ([3]; human, in vivo): 20%
difference in effectiveness of brimonidine and dorzolamide [3]: no statistically significant differences
decrease of carbonic anhydrase isoenzyme's activity, of its basic activity [4]: 21%

CC(C)(C)NC[C@H](O)COc1nsnc1N1CCOCC1 [timolol]
effect over pupil size or accommodation [5]: little or no effect
systemic effects after absorption [5]: decrease in heart rate, cardiac arrhythmia and bronchial spasm
time over which ocular antihypertensive effect is maintained (chronic use): up to three years
duration of effect (one drop of timolol at 0.5%): over 24 hours
start of the drug's action (one drop of timolol at 0.5%): after an hour
time of peak effect (one drop of timolol at 0.5%): 2 h
start of the drug's action (one drop, topical ocular instillation): within a single hour
duration of significant reduction of intraocular pressure (single dose): up to 24 hours
